What was measured:
[1] = target: T1, Avi-KRAS G12D/Q25A (1-169) GppNHp/3×FLAG-PI3KCA (157-299) (Homo sapiens, UniProt P01116, G12D/Q25A); test: HTRF PI3KCA-KRAS G12D/Q25A-GppNHp disruption assay; type: biochemical; details: 1 h incubation
T1 construct: Avi-KRAS G12D/Q25A (1-169) GppNHp
Outline: (§1)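 HTRF read-out (320 nm excitation, 615 nm emission) after two 1 h room-temperature incubations, first with protein mix, then detection reagents. Ten-point dilution series starting at 100 μM; results given as % activity relative to DMSO at 100%.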

[2] = target: T2, Avi-KRAS G12D (1-169) GppNHp/RAF1 RBD-3×FLAG (52-151) (Homo sapiens, UniProt P01116, G12D); test: HTRF Raf1-KRAS G12D-GppNHp disruption assay; type: biochemical; details: 1 h incubation
T2 construct: Avi-KRAS G12D (1-169) GppNHp
Outline: as §1

[3] = test system: pERK in GP2d cells (KRAS G12D); test: Cell-based pERK HTRF assay; details: GP2d, 1 h, 60 min incubation
Procedure: Biological Example 3. Cell-Based pERK HTRF Assay
pERK assay (Perkin Elmer) was used to determine the effectiveness of compounds in disrupting KRAS G12D protein/effector signaling in cells.
On Day 1, cells (GP2d) were seeded into 96-well plates at 3×10^4 cells/well in 80 μl complete growth media (DMEM, 10% FBS).
On Day 2, cells were treated with compounds at 0.25% DMSO. The source plate was created with compounds diluted in media at 5-fold the final assay concentration. The compounds were run in a 9-point concentration curve starting at 1 μM, with a half-log dilution between concentrations. 20 μL was transferred onto the cell plates (final volume in wells was 100 μL). Plates were harvested after 60 min incubation by aspirating media and adding kit-supplied 1× supplemented lysis buffer to all wells (50 μl per well). Plates were then placed on a plate shaker and incubated at 850 rpm for an additional 30 min.
Antibody mixture solution is prepared by diluting aliquoted d2 and Eu Cryptate antibodies 1:20 in kit supplied detection buffer, mix the diluted antibodies solutions (1:1 v:v). Four μL of this solution is then added to a 384-well detection plate (Perkin Elmer; 6008230).
Samples were homogenized by pipetting up and down and then transferred (16 μL of cell lysates) from the 96-well cell culture plate to two wells of the HTRF 384-well detection plate containing the antibody solution. Plates were centrifuged (524 g for 1 min) and allowed to incubate between 4 and 24 h at room temperature. Maximum signal is reached after 4 h incubation time and remains stable over a period of 24 hours. Therefore, readings can be made between 4 and 24 h of incubation. Plates were centrifuged again (524 g for 1 min), then analyzed on the EnVision plate reader using the following settings: Excitation 320 nm, Bandwidth 75 nm; Emission 615 nm, Bandwidth 85 nm; Gain 100%; Flashes 100; Lag 60 μs.

T1 sequence (P01116 1-169 isoform P01116-2 G12D/Q25A limits assumed): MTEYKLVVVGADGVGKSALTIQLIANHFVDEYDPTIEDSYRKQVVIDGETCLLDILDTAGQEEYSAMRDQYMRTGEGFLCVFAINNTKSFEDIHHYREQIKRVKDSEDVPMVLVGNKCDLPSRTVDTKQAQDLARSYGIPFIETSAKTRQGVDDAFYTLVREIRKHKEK
T2 sequence (P01116 1-169 isoform P01116-2 G12D limits assumed): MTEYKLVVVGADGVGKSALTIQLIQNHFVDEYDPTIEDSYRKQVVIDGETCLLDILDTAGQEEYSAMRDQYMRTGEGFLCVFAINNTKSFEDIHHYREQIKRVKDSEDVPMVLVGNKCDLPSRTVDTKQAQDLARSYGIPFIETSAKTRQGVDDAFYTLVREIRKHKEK

SMILES	IC50 [1]	IC50 [2]	IC50 [3]
N#Cc1c(N)sc2c(F)ccc(-c3c(C(F)(F)F)cc4c(N5CC6CCC(C5)N6)nc(OCC5(CN6CCOCC6)CC5)nc4c3F)c12 [Compound 337]	100 to 1000 nM	≤ 100 nM	≤ 100 nM
CO[C@H]1CN2CCC[C@@]2(COc2nc(N3CC4CCC(C3)N4)c3cc(C(F)(F)F)c(-c4ccc(F)c5sc(N)nc45)c(F)c3n2)C1 [Compound 261]	100 to 1000 nM	100 to 1000 nM	≤ 100 nM
Nc1nc2c(-c3c(OC(F)(F)F)cc4c(N5CC6CCC(C5)N6)nc(OC[C@@]56CCCN5C[C@H](F)C6)nc4c3F)ccc(F)c2s1 [Compound 232]	10000 to 30000 nM	100 to 1000 nM	≤ 100 nM
Nc1nc2c(-c3c(C(F)(F)F)cc4c(NC5CNC5)nc(OC[C@@]56CCCN5C[C@H](F)C6)nc4c3F)ccc(F)c2s1 [Compound 247]	100 to 1000 nM	100 to 1000 nM	> 1000 nM
CN1CCC[C@H]1COc1nc(NC2CNC2)c2cc(-c3ccoc3)c(-c3ccc(F)c4sc(N)nc34)c(F)c2n1 [Compound 133]	1000 to 10000 nM	100 to 1000 nM	> 1000 nM
Nc1nc2c(-c3c(C(F)F)cc4c(N5C[C@H]6CC[C@@H](C5)N6)nc(OC[C@@]56CCCN5C[C@H](F)C6)nc4c3Cl)ccc(F)c2s1 [Compound 368, 4-(4-((1R,5S)-3,8-diazabicyclo[3.2.1]octan-3-yl)-8-chloro-6-(difluoromethyl)-2-(((2R,7aS)-2-fluorotetrahydro-1H-pyrrolizin-7a(5H)-yl)methoxy)quinazolin-7-yl)-7-fluorobenzo[d]thiazol-2-amine]	100 to 1000 nM	100 to 1000 nM	≤ 100 nM
CN(c1nc(OCC23CCCN2CCC3)nc2c(F)c(-c3ccc(F)c4sc(N)nc34)c(C(F)(F)F)cc12)[C@@H]1CCN(C(=O)CN)C1 (atropisomer, axis not shown) [Compound 276]	1000 to 10000 nM	100 to 1000 nM	> 1000 nM
Nc1nc2c(-c3c(C(F)(F)F)cc4c(NC5CC6CC[C@H](C5)N6)nc(OCC56CCCN5CCC6)nc4c3F)ccc(F)c2s1 (stereo partly drawn) [Compound 264]	100 to 1000 nM	100 to 1000 nM	> 1000 nM
Nc1nc2c(-c3c(C(F)(F)F)cc4c(N5C[C@H]6CC[C@@H](C5)N6)nc(OCC5(CN6CCOCC6)CC5)nc4c3F)ccc(F)c2s1 [Compound 251, 4-(4-((1R,5S)-3,8-diazabicyclo[3.2.1]octan-3-yl)-8-fluoro-2-((1-(morpholinomethyl)cyclopropyl)methoxy)-6-(trifluoromethyl)quinazolin-7-yl)-7-fluorobenzo[d]thiazol-2-amine]	1000 to 10000 nM	100 to 1000 nM	≤ 100 nM
Nc1nc2c(-c3c(C(F)(F)F)cc4c(N5CC6CC(C5)N6)nc(OCC56CCCN5CCC6)nc4c3F)ccc(F)c2s1 [Compound 185]	100 to 1000 nM	100 to 1000 nM	100 to 1000 nM
CN(c1nc(OC[C@@]23CCCN2C[C@H](F)C3)nc2c(F)c(-c3ccc(F)c4sc(N)nc34)c(C(F)(F)F)cc12)[C@@H]1CNCC1(C)C [Compound 293]	100 to 1000 nM	100 to 1000 nM	100 to 1000 nM
N#Cc1c(N)sc2c(F)ccc(-c3c(C(F)(F)F)cc4c(N5CC6CCC(C5)N6)nc(OCC5(CN6CC[C@@H](F)C6)CC5)nc4c3F)c12 [Compound 330]	100 to 1000 nM	≤ 100 nM	≤ 100 nM
CN1C[C@H](F)C[C@H]1COc1nc(N2CC3CCC(C2)N3)c2cc(C(F)(F)F)c(-c3ccc(F)c4sc(N)nc34)c(F)c2n1 [Compound 275]	1000 to 10000 nM	1000 to 10000 nM	≤ 100 nM
CO[C@H]1CN2CCC[C@]2(COc2nc(N3CC4CCC(C3)N4)c3cc(C(F)(F)F)c(-c4ccc(F)c5sc(N)nc45)c(F)c3n2)C1 [Compound 285]	100 to 1000 nM	100 to 1000 nM	≤ 100 nM
NCC(=O)N1CCN(c2nc(OCC34CCCN3CCC4)nc3c(F)c(-c4ccc(F)c5sc(N)nc45)c(C(F)(F)F)cc23)CC1 [Compound 127]	1000 to 10000 nM	100 to 1000 nM	> 1000 nM
C[C@@H]1CN(c2nc(OC[C@@]34CCCN3C[C@H](F)C4)nc3c(F)c(-c4ccc(F)c5sc(N)nc45)c(C(F)(F)F)cc23)[C@@H](C)CN1 [Compound 207]	1000 to 10000 nM	100 to 1000 nM	≤ 100 nM
N#Cc1c(N)sc2c(F)ccc(-c3cc4nc(OC[C@@]56CCCN5C[C@H](F)C6)nc(N5CC6CCC(C5)N6)c4cc3C(F)(F)F)c12 [Compound 323, 4-(4-(3,8-diazabicyclo[3.2.1]octan-3-yl)-2-(((2R,7aS)-2-fluorotetrahydro-1H-pyrrolizin-7a(5H)-yl)methoxy)-6-(trifluoromethyl)quinazolin-7-yl)-2-amino-7-fluorobenzo[b]thiophene-3-carbonitrile]	100 to 1000 nM	≤ 100 nM	≤ 100 nM
CN1C[C@H](F)C[C@H]1COc1nc(N2C[C@H]3NCC[C@H]32)c2cc(C(F)(F)F)c(-c3ccc(F)c4sc(N)nc34)c(F)c2n1 [Compound 174]		1000 to 10000 nM	> 1000 nM
Nc1nc2c(-c3c(C(F)(F)F)cc4c(N[C@H]5C[C@@H]6CC[C@H]5N6)nc(OCC56CCCN5CCC6)nc4c3F)ccc(F)c2s1 (atropisomer, axis not shown) [Compound 287]	1000 to 10000 nM	1000 to 10000 nM	
CN1C[C@H](F)C[C@H]1COc1nc(NC2CNC2)c2cc(C(F)(F)F)c(-c3ccc(F)c4sc(N)nc34)c(F)c2n1 [Compound 119]	1000 to 10000 nM	1000 to 10000 nM	

Now from value to molecule:

IC50 [1]	IC50 [2]	IC50 [3]	SMILES
100 to 1000 nM	100 to 1000 nM	100 to 1000 nM	CN(c1nc(OC[C@@]23CCCN2C[C@H](F)C3)nc2c(F)c(-c3ccc(F)c4sc(N)c(C#N)c34)c(F)cc12)[C@H]1CCNC1 [Compound 361, 2-amino-4-(6,8-difluoro-2-(((2R,7aS)-2-fluorotetrahydro-1H-pyrrolizin-7a(5H)-yl)methoxy)-4-(methyl((S)-pyrrolidin-3-yl)amino)quinazolin-7-yl)-7-fluorobenzo[b]thiophene-3-carbonitrile]
100 to 1000 nM	≤ 100 nM	≤ 100 nM	C[C@@H]1CN(c2nc(OC[C@@]34CCCN3C[C@H](F)C4)nc3c(F)c(-c4ccc(F)c5sc(N)c(C#N)c45)c(C(F)(F)F)cc23)[C@@H](C)CN1 [Compound 378]
1000 to 10000 nM	100 to 1000 nM	≤ 100 nM	CN(c1nc(OCC2(CN3CCOCC3)CC2)nc2c(F)c(-c3ccc(F)c4sc(N)nc34)c(C(F)(F)F)cc12)[C@@H]1CCNC1 [Compound 296]
10000 to 30000 nM	1000 to 10000 nM	> 1000 nM	Nc1nc2c(-c3cc4nc(OC[C@@]56CCCN5C[C@H](F)C6)nc(O[C@H]5CNC[C@@H]5F)c4cc3C(F)(F)F)ccc(F)c2s1 [Compound 374]
100 to 1000 nM	100 to 1000 nM	100 to 1000 nM	CN(c1nc(OC[C@@]23CCCN2C[C@H](F)C3)nc2c(F)c(-c3ccc(F)c4sc(N)c(C#N)c34)ccc12)[C@@H]1CCNC1 [Compound 344]
10000 to 30000 nM	10000 to 30000 nM	> 1000 nM	Nc1nc2c(-c3c(C(F)(F)F)cc4c(N[C@H]5CCC[C@@H](N)C5)nc(OCC56CCCN5CCC6)nc4c3F)ccc(F)c2s1 [Compound 329]
1000 to 10000 nM	1000 to 10000 nM	> 1000 nM	Nc1nc2c(-c3c(C(F)(F)F)cc4c(N5CC[C@@H]6CCNC[C@@H]65)nc(OCC56CCCN5CCC6)nc4c3F)ccc(F)c2s1 [Compound 349]
1000 to 10000 nM	1000 to 10000 nM	100 to 1000 nM	C[C@@H]1C[C@@H](N(C)c2nc(OC[C@@]34CCCN3C[C@H](F)C4)nc3c(F)c(-c4ccc(F)c5sc(N)c(C#N)c45)ccc23)CN1 [Compound 357]
1000 to 10000 nM	100 to 1000 nM	100 to 1000 nM	C[C@@H]1C[C@@H](N(C)c2nc(OC[C@@]34CCCN3C[C@H](F)C4)nc3cc(-c4ccc(F)c5sc(N)nc45)c(C(F)(F)F)cc23)CN1 [Compound 336]
10000 to 30000 nM	100 to 1000 nM	≤ 100 nM	C[C@H]1C[C@@H](N(C)c2nc(OC[C@@]34CCCN3C[C@H](F)C4)nc3c(F)c(-c4ccc(F)c5sc(N)nc45)c(C(F)(F)F)cc23)CN1 [Compound 311]
1000 to 10000 nM	100 to 1000 nM	100 to 1000 nM	CN(c1nc(OCC2(CN3CC[C@@H](F)C3)CC2)nc2c(F)c(-c3ccc(F)c4sc(N)nc34)c(C(F)(F)F)cc12)[C@@H]1CCNC1 [Compound 297]

From US20240246954A1, “COMPOSITIONS AND METHODS FOR INHIBITING KRAS” (TheRas, Inc., priority 2021, published 2024)
